Assay results: PubChem BioAssay (NCI)
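Grown in 96-well plates, cells were treated for 48 hours with each compound at five concentrations. Insufficient inhibition: endpoint recorded as highest concentration tested. GI50: concentration for 50% inhibition of growth. TGI is the concentration that stops growth completely.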

Tests used:
Experiment in all cases: NCI tumour cell line growth inhibition, 48 h
[1] = system: T-47D breast
[2] = system: A549 NSCLC
[3] = system: TK-10 renal
[4] = system: BT-549 breast
[5] = system: SF-539 CNS
[6] = system: MOLT-4 leukemia
[7] = system: NCI-H460 lung
[8] = system: OVCAR-8 ovarian
[9] = system: CCRF-CEM leukemia
[10] = system: MCF7 breast
[11] = system: SK-OV-3 ovarian
[12] = system: OVCAR-5 ovarian
[13] = system: HT29 colon
[14] = system: HCC-2998 colon
[15] = system: LOX IMVI melanoma
[16] = system: NCI-H226 lung
[17] = system: SR leukemia
[18] = system: SK-MEL-28 melanoma
[19] = system: HS 578T breast
[20] = system: NCI-H522 lung
[21] = system: OVCAR-4 ovarian
[22] = system: RXF 393 renal
[23] = system: COLO 205 colon
[24] = system: UACC-62 melanoma
[25] = system: SNB-19 CNS
[26] = system: ACHN renal
[27] = system: MDA-MB-435
[28] = system: SN12C renal
[29] = system: OVCAR-3 ovarian
[30] = system: 786-0 renal
[31] = system: M14 melanoma
[32] = system: HCT-15 colon
[33] = system: EKVX NSCLC
[34] = system: UACC-257 melanoma
[35] = system: SK-MEL-2 melanoma
[36] = system: KM12 colon
[37] = system: HOP-62 NSCLC
[38] = system: SNB-75 CNS
[39] = system: HL-60(TB) leukemia
[40] = system: MDA-MB-231 breast
[41] = system: MALME-3M melanoma
[42] = system: K-562 leukemia
[43] = system: SF-295 CNS
[44] = system: RPMI-8226 leukemia
[45] = system: CAKI-1 renal
[46] = system: PC-3 prostate
[47] = system: A498 renal
[48] = system: HOP-92 NSCLC
[49] = system: U251 CNS
[50] = system: MDA-MB-468 breast
[51] = system: SW-620 colon
[52] = system: HCT-116 colon
[53] = system: SK-MEL-5 melanoma
[54] = system: SF-268 CNS
[55] = system: UO-31 renal
[56] = system: DU-145 prostate
[57] = system: NCI-H23 lung
[58] = system: IGROV1 ovarian

SMILES: N#CC1=C(c2cccs2)Nc2c(c(-c3ccccc3)nn2-c2ccccc2)C12C(=O)Nc1ccc(Cl)cc12 (stereo unspecified)
- GI50 [1]: 5.84 µM
- TGI [1]: 33.8 µM
- GI50 [2]: 4.12 µM
- TGI [2]: 15.9 µM
- GI50 [3]: 5.81 µM
- TGI [3]: 20.5 µM
- GI50 [4]: 3.02 µM
- TGI [4]: 13.1 µM
- GI50 [5]: 4.77 µM
- TGI [5]: 17 µM
- GI50 [6]: 4.95 µM
- TGI [6]: 23.4 µM
- GI50 [7]: 4.07 µM
- TGI [7]: 14.1 µM
- GI50 [8]: 4.92 µM
- TGI [8]: 17.9 µM
- GI50 [9]: 3.35 µM
- TGI [9]: 20.7 µM
- GI50 [10]: 4.95 µM
- TGI [10]: 19.4 µM
- GI50 [11]: 10.6 µM
- TGI [11]: 23.6 µM
- GI50 [12]: 7.31 µM
- TGI [12]: 20.9 µM
- GI50 [13]: 4.82 µM
- TGI [13]: 17.1 µM
- GI50 [14]: 7.13 µM
- TGI [14]: 19.8 µM
- GI50 [15]: 6.46 µM
- TGI [15]: 20.4 µM
- GI50 [16]: 11.6 µM
- TGI [16]: 28.2 µM
- GI50 [17]: 4.93 µM
- TGI [17]: 36.3 µM
- GI50 [18]: 11.1 µM
- TGI [18]: 23.2 µM
- GI50 [19]: 3.22 µM
- TGI [19]: 18.6 µM
- GI50 [20]: 2.6 µM
- TGI [20]: 9.87 µM
- GI50 [21]: 4.77 µM
- TGI [21]: 21.1 µM
- GI50 [22]: 3.14 µM
- TGI [22]: 13.3 µM
- GI50 [23]: 14.3 µM
- TGI [23]: 29.5 µM
- GI50 [24]: 4.13 µM
- TGI [24]: 16.9 µM
- GI50 [25]: 3.12 µM
- TGI [25]: 14.2 µM
- GI50 [26]: 4.05 µM
- TGI [26]: 14.8 µM
- GI50 [27]: 11.1 µM
- TGI [27]: 23.9 µM
- GI50 [28]: 4.46 µM
- TGI [28]: 16.8 µM
- GI50 [29]: 6.88 µM
- TGI [29]: 19.7 µM
- GI50 [30]: 6.43 µM
- TGI [30]: 20.6 µM
- GI50 [31]: 4.94 µM
- TGI [31]: 18.4 µM
- GI50 [32]: 3.74 µM
- TGI [32]: 14.1 µM
- GI50 [33]: 4.33 µM
- TGI [33]: 18 µM
- GI50 [34]: 12.9 µM
- TGI [34]: 25.8 µM
- GI50 [35]: 3.97 µM
- TGI [35]: 14.6 µM
- GI50 [36]: 3.66 µM
- TGI [36]: 13.6 µM
- GI50 [37]: 7.02 µM
- TGI [37]: 21.4 µM
- GI50 [38]: 2.6 µM
- TGI [38]: 13 µM
- GI50 [39]: 3.51 µM
- TGI [39]: 11.7 µM
- GI50 [40]: 4.52 µM
- TGI [40]: 16.9 µM
- GI50 [41]: 14.3 µM
- TGI [41]: 27.4 µM
- GI50 [42]: 4.46 µM
- TGI [42]: 34.1 µM
- GI50 [43]: 3.74 µM
- TGI [43]: 15.9 µM
- GI50 [44]: 4.3 µM
- TGI [44]: 27.5 µM
- GI50 [45]: 5.26 µM
- TGI [45]: 18.6 µM
- GI50 [46]: 3.18 µM
- TGI [46]: 15.2 µM
- GI50 [47]: 16.8 µM
- TGI [47]: 31.2 µM
- GI50 [48]: 2.47 µM
- TGI [48]: 7.94 µM
- GI50 [49]: 3.88 µM
- TGI [49]: 14.4 µM
- GI50 [50]: 4.45 µM
- TGI [50]: 16.6 µM
- GI50 [51]: 4.56 µM
- TGI [51]: 16.6 µM
- GI50 [52]: 3.95 µM
- TGI [52]: 16.3 µM
- GI50 [53]: 10.8 µM
- TGI [53]: 23.1 µM
- GI50 [54]: 3.52 µM
- TGI [54]: 19 µM
- GI50 [55]: 2.54 µM
- TGI [55]: 12.2 µM
- GI50 [56]: 13.9 µM
- TGI [56]: 30.3 µM
- GI50 [57]: 5.57 µM
- TGI [57]: 18.2 µM
- GI50 [58]: 4.93 µM
- TGI [58]: 17.7 µM
